Experiments:
p38α = molecular target: T1, p38α (Homo sapiens, UniProt Q16539); assay: p38 MAP Kinase assay: inhibition of ATF2 phosphorylation, ELISA; type: biochemical; details: for inhibition at 10 µM: substrate ATF2, read-out: [ENZ] P38 ALPHA, PCT INH, ELISA (10 uM;ATF2) (Percent); for IC50: ATF2 phosphorylation, read-out: [ENZ] P38 ALPHA, IC50, ELISA
T1 construct: p38 MAP Kinases are recombinant human full-length proteins with an amino-terminal GST fusion; GST (N); purchased Upstate Biotechnology Inc; host or cells: E. coli
T1 sequence (Q16539 whole entry, the tested form may be a part): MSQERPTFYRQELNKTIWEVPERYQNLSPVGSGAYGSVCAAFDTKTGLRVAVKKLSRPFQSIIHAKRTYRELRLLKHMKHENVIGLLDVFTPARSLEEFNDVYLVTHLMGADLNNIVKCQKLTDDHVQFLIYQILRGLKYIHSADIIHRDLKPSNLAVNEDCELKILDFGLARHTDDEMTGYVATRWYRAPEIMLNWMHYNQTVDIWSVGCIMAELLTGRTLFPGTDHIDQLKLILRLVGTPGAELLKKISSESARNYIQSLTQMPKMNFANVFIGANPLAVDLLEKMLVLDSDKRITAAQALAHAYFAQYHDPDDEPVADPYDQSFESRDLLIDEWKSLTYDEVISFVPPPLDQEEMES
Method in brief: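 In vitro phosphorylation of ATF2 at Thr69 by recombinant human GST-p38 MAP kinase, read by anti-phospho-ATF2 ELISA at 450 nm. Enzyme and compound pre-incubated 15 min at RT, then 30 min reaction at 37 °C with 40 μM ATP and 1.25 μM ATF2; buffer with or without 1% HSA (Method II or I).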

[1] = tested on: TNFα release from THP-1 cells; assay: Inhibition of TNFα release from LPS-stimulated THP-1 cells, ELISA; type: cell-based; details: Homo sapiens, THP-1, THP-1 cells, read-out: [CELL] THP-1, IC50, TNF ALPHA, ELISA
Text: Compounds of the invention are screened for the ability to inhibit TNFα and IL-1β release from THP-1 cells stimulated with lipopolysaccharide (LPS) in vitro. The ability of compounds to inhibit TNFα and IL-1β release in this in vitro assay is correlated with the inhibition of p38 activity and TNFα and IL-1β expression in vivo, and is therefore an indicator of potential in vivo therapeutic activity (Lee J. C. et al, Ann. N.Y. Acad. Sci. 696: 149-170, 1993 and Nature, 372: 739-746, 1994).
Materials: THP-1 cells from ATCC (TIB202) are maintained at 37° C., 5% CO2 in RPMI 1640 media (available from MediaTech, Herndon, Va.) containing 4.5 g/L glucose, supplemented with 10% fetal bovine serum, 1% penicillin/streptomycin and 50 μM β-mercaptoethanol.
Methods: Test compounds are initially dissolved in RPMI media with 1% DMSO (v/v). Compounds are then serially diluted in RPMI media for all subsequent dilutions. The assay is performed under sterile conditions. THP-1 cells at a culture density of 6-8×10^5 cells/ml are collected and resuspended in the RPMI media at 10^6 cells/ml containing 10% fetal bovine serum, no serum or 1% human serum albumin (HSA). 100 μl of resuspended cells are added to each well, which contain 100 μl of a test compound. Test compounds are prepared at twice the final concentration. Final DMSO concentration is no more than 0.5% (v/v). Cells are preincubated with compound for 30 minutes at 37° C., 5% CO2 prior to stimulation with lipopolysaccharide (LPS) (Sigma L-2880, 4 mg/ml stock in PBS). The final LPS concentration in each well is 10 or 30 μg/ml for TNFα and IL-1β release, respectively. Unstimulated control cell suspensions receive PBS vehicle only. Cell mixtures are incubated for 18 or 48 hours for TNFα and IL-1β prelease, respectively. 150 μl of supernatants are taken and transferred to a fresh plate and stored at −20° C. until further analysis. TNFα and IL-1β levels are measured using ELISA kits from Biosource (Catalog no. KHC3012 for TNFα; KAC1192 for IL-1β). A SpectraMAX 250 is used as the plate reader. Analysis is performed by non-linear regression to generate a dose response curve. The calculated IC50 value is the concentration of the test compound that causes a 50% decrease in TNFα or IL-1β levels.

| inhibition at 10 µM (p38α) | IC50 (p38α) | IC50 [1] | SMILES |
| --- | --- | --- | --- |
| 88% | 622 nM | 1030 nM | Cc1cc(C(=O)Nc2ccc(OCCN3CCOCC3)c3ccccc23)cc(N2CCCC(C)C2)n1 (stereo not shown) [Compound B153, 3,6′-Dimethyl-3,4,5,6-tetrahydro-2H-[1,2′]bipyridinyl-4′-carboxylic acid [4-(2-morpholin-4-yl-ethoxy)-naphthalen-1-yl]-amide] |
| 71% | 2720 nM | 2530 nM | Cc1cc(C(=O)Nc2ccc(OCCN3CCOCC3)c3ccccc23)cc(N2CCC(C)CC2)n1 [Compound B154, 4,6′-Dimethyl-3,4,5,6-tetrahydro-2H-[1,2′]bipyridinyl-4′-carboxylic acid [4-(2-morpholin-4-yl-ethoxy)-naphthalen-1-yl]-amide] |
| 72% | 2670 nM | > 10000 nM | O=C(Nc1ccc(OCCN2CCC(O)CC2)c2ccccc12)c1cc(F)cc(N2CCCCC2)c1 [Compound B158, 3-Fluoro-N-{4-[2-(4-hydroxypiperidin-1-yl)-ethoxy]-naphthalen-1-yl}-5-piperidin-1-yl-benzamide] |
| 58.5% | 1820 nM | > 10000 nM | CCOC(=O)C1CCN(CCOc2ccc(NC(=O)c3cc(F)cc(N4CCCCC4)c3)c3ccccc23)CC1 [Compound B160, 1-{2-[4-(3-Fluoro-5-piperidin-1-yl-benzoylamino)-naphthalen-1-yloxy]-ethyl}-piperidine-4-carboxylic acid ethyl ester] |
| 57% | 4840 nM | > 10000 nM | O=C(Nc1ccc(OCCN2CCC(CO)CC2)c2ccccc12)c1cc(F)cc(N2CCCCC2)c1 [Compound B163, 3-Fluoro-N-{4-[2-(4-hydroxymethyl-piperidin-1-yl)-ethoxy]-naphthalen-1-yl}-5-piperidin-1-yl-benzamide] |
|  | 1420 nM | 6630 nM | CC1CCN(c2cc(F)cc(C(=O)Nc3ccc(OCCN4CCNC(=O)C4)c4ccccc34)c2)CC1 [Compound B197, 3-Fluoro-5-(4-methyl-piperidin-1-yl)-N-{4-[2-(3-oxo-piperazin-1-yl)-ethoxy]-naphthalen-1-yl}-benzamide] |
|  | > 10000 nM | > 10000 nM | O=C(Nc1ccc(OCCN2CCOCC2)c2ccccc12)c1cc(F)cc(N2CCN(c3ccc(F)cc3)CC2)c1 [Compound B203] |
|  | 1680 nM | > 10000 nM | CC1CCCC(C)N1c1cc(F)cc(C(=O)Nc2ccc(OCCN3CCOCC3)c3ccccc23)c1 (stereo not shown) [Compound B205, 3-(2,6-Dimethylpiperidin-1-yl)-5-fluoro-N-[4-(2-morpholin-4-ylethoxy)-1-naphthyl]benzamide] |

The next lines start with the compound.

| SMILES | inhibition at 10 µM (p38α) | IC50 (p38α) | IC50 [1] |
| --- | --- | --- | --- |
| CC(=O)N1CCN(c2cc(C(=O)Nc3ccc(OCCN4CCOCC4)c4ccccc34)ccn2)CC1 [Compound B123, 2-(4-Acetyl-piperazin-1-yl)-N-[4-(2-morpholin-4-yl-ethoxy)-naphthalen-1-yl]-isonicotinamide] | 50.5% | 5750 nM | 6150 nM |
| CC1CCCN(c2cc(C(=O)Nc3ccc(OCCN4CCOCC4)c4ccccc34)ccn2)C1 (stereo not shown) [Compound B126, 3-Methyl-3,4,5,6-tetrahydro-2 H-[1,2′]bipyridinyl-4′-carboxylic acid [4-(2-morpholin-4-yl-ethoxy)-naphthalen-1-yl]-amide] | 85% | 451 nM | 934 nM |
| O=C(Nc1ccc(OCCN2CCOCC2)c2ccccc12)c1ccnc(N2CCCCC2)c1 [Compound B127, 3,4,5,6-Tetrahydro-2 H-[1,2′]bipyridinyl-4′-carboxylic acid [4-(2-morpholin-4-yl-ethoxy)-naphthalen-1-yl]-amide] | 68.5% | 1880 nM | 782 nM |
| CC1CCN(c2cc(C(=O)Nc3ccc(OCCN4CCOCC4)c4ccccc34)ccn2)CC1 [Compound B128, 4-Methyl-3,4,5,6-tetrahydro-2 H-[1,2′]bipyridinyl-4′-carboxylic acid [4-(2-morpholin-4-yl-ethoxy)-naphthalen-1-yl]-amide] | 82% | 1150 nM | 8710 nM |
| CC1CCCN1c1cc(C(=O)Nc2ccc(OCCN3CCOCC3)c3ccccc23)ccn1 (stereo not shown) [Compound B130, 2-(2-Methyl-pyrrolidin-1-yl)-N-[4-(2-morpholin-4-yl-ethoxy)-naphthalen-1-yl]-isonicotinamide] | 88.5% | 822 nM | 2340 nM |
| CCN(C)c1cc(C(=O)Nc2ccc(OCCN3CCOCC3)c3ccccc23)ccn1 [Compound B133, 2-(Ethyl-methyl-amino)-N-[4-(2-morpholin-4-yl-ethoxy)-naphthalen-1-yl]-isonicotinamide] | 52% | 7680 nM | 8500 nM |
| Cc1cc(C(=O)Nc2ccc(OCCN3CCOCC3)c3ccccc23)cc(N2CCCC2C)n1 (stereo not shown) [Compound B155, 2-Methyl-6-(2-methyl-pyrrolidin-yl)-N-[4-(2-morpholin-4-yl-ethoxy)-naphthalen-1-yl]-isonicotinamide] | 89% | 745 nM | 2450 nM |
| O=C(Nc1ccc(OCCN2CCC3(CC2)OCCO3)c2ccccc12)c1cc(F)cc(N2CCCCC2)c1 [Compound B159, N-{4-[2-(1,4-Dioxa-8-aza-spiro[4.5]dec-8-yl)-ethoxy]-naphthalen-1-yl}-3-fluoro-5-piperidin-1-yl-benzamide] | 72.5% | 1090 nM | > 10000 nM |
| O=C(Nc1ccc(OCCCN2CCC(O)CC2)c2ccccc12)c1cc(F)cc(N2CCCCC2)c1 [Compound B162, 3-Fluoro-N-{4-[3-(4-hydroxy-piperidin-1-yl)-propoxy]-naphthalen-1-yl}-5-piperidin-1-yl-benzamide] | 59.5% | 9890 nM | > 10000 nM |
| CC(=O)N1CCN(CCOc2ccc(NC(=O)c3cc(F)cc(N4CCCCC4)c3)c3ccccc23)CC1 [Compound B167, N-{4-[2-(4-Acetyl-piperazin-1-yl)-ethoxy]-naphthalen-1-yl}-3-fluoro-5-piperidin-1-yl-benzamide] |  | 851 nM | > 10000 nM |
| CC(C)(C)CNc1cccc(C(=O)Nc2ccc(OCCN3CCOCC3)c3ccccc23)c1 [Compound B173, 3-(2,2-Dimethyl-propylamino)-N-[4-(2-morpholin-4-yl-ethoxy)-naphthalen-1-yl]-benzamide] | 89.5% | 735 nM | 2280 nM |
| CC1CCN(c2cc(F)cc(C(=O)Nc3ccc(N4CCN(C(=O)OC(C)(C)C)CC4)c4ccccc34)c2)CC1 [Compound B192] |  | > 10000 nM | 4720 nM |
| CC1CCN(c2cc(F)cc(C(=O)Nc3ccc(OCc4nn[nH]n4)c4ccccc34)c2)CC1 [Compound B193, 3-Fluoro-5-(4-methylpiperidin-1-yl)-N-[4-(2H-tetrazol-5-ylmethoxy)-naphthalen-1-yl]-benzamide] |  | 3840 nM | > 10000 nM |
| CC(=O)N1CCN(c2ccc(NC(=O)c3cc(F)cc(N4CCC(C)CC4)c3)c3ccccc23)CC1 [Compound B196] |  | 3190 nM | > 10000 nM |
| O=C1CCN(c2cc(F)cc(C(=O)Nc3ccc(OCCN4CCOCC4)c4ccccc34)c2)CC1 [Compound B198, 3-Fluoro-N-[4-(2-morpholin-4-yl-ethoxy)-naphthalen-1-yl]-5-(4-oxo-piperidin-1-yl)-benzamide] |  | 1770 nM | 8500 nM |
| O=C(Nc1ccc(OCCN2CCOCC2)c2ccccc12)c1cc(F)cc(N2CCc3ccccc3C2)c1 [Compound B200] |  | > 10000 nM | > 10000 nM |
| CC1CCCCN1c1cc(F)cc(C(=O)Nc2ccc(OCCN3CCOCC3)c3ccccc23)c1 (stereo not shown) [Compound B201, 3-Fluoro-5-(2-methylpiperidin-1-yl)-N-[4-(2-morpholin-4-ylethoxy)-1-naphthyl]benzamide] |  | 323 nM | 4730 nM |
| O=C(Nc1ccc(OCCN2CCOCC2)c2ccccc12)c1cc(F)cc(F)c1 [Compound B204] |  | > 10000 nM | > 10000 nM |

From patent US7829560B2, “1,4-disubstituted naphthalenes as inhibitors of P38 MAP kinase” (Arqule, Inc., priority 2004, dated 2010)
